Results: PMC1448180, “Small-molecule and mutational analysis of allosteric Eg5 inhibition by monastrol” (BMC Chemical Biology, 2006)
Numbering of substitutions follows the chain as printed.

Legend:
[1] = system: human Eg5; set-up: method as in PMID 10542155, PMID 10973989; conditions: cited from earlier work
[2] = target: T1, hEg5-367H (L214I) (Homo sapiens, UniProt P52732, L214I); assay: ATP hydrolysis by Eg5 motor domain mutant L214I; assay type: biochemical; conditions: Figure 4B; legend: basal ATP hydrolysis; read-out: IC50(μM) of monastrol, (L214I)
T1 sequence (P52732 1-367 L214I): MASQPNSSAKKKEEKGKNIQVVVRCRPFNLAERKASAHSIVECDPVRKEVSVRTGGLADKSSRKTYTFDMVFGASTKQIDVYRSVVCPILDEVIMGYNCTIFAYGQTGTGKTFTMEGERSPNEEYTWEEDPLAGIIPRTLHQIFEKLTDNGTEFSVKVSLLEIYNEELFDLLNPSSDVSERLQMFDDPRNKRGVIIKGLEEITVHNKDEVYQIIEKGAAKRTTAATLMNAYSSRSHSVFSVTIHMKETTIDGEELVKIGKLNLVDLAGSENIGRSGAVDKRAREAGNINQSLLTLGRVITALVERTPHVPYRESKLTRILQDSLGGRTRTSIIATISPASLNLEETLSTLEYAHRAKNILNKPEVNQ
From the text: (§1) Figure 4 Mutagenesis of the monastrol binding site in human Eg5. (A) Design of mutations in the human Eg5 motor domain. Amino acid side chains that are not conserved between Eg5 and conventional kinesin were targeted, either introducing chimeric or rationally designed mutations (asterix for targeted point mutants) to test the contribution of residues to the drug-sensitivity of Eg5. (B) Steady-state enzymatic parameters for engineered human Eg5 motor domain mutants. Steady-state ATP hydrolysis by Eg5 was measured using an NADH-enzyme coupled assay varying the concentration of ATP, microtubules, or monastrol to obtain the microtubule concentration for half-maximal stimulation (K0.5MT), the maximal rate of microtubule-stimulated ATP hydrolysis (kcat), and the concentration of monastrol that inhibits basal ATP hydrolysis by 50 % (IC50), as described.
(§2) We used a modified PCR mutagenesis protocol to introduce mutations into hEg5-367H, a plasmid encoding the C-terminally His6-tagged motor domain (amino acid residues 1–367) of human Eg5. […]
(§3) ATP hydrolysis by recombinantly expressed kinesin motor domains was measured using an NADH-enzyme coupled assay. ATP hydrolysis was measured in KC25 buffer supplemented with 5 μM taxol, 1 mM ATP-KOH (pH 7.0), the appropriate concentration of motor domain, and the appropriate concentrations of taxol-polymerized microtubules.

[3] = system: BimC; set-up: method as in PMID 12525161; conditions: cited from earlier work
[4] = target: T2, hEg5-367H (R119L) (Homo sapiens, UniProt P52732, R119L); assay: ATP hydrolysis by Eg5 motor domain mutant R119L; assay type: biochemical; conditions: Figure 4B; legend: basal ATP hydrolysis; read-out: IC50(μM) of monastrol, (R119L)
T2 sequence (P52732 1-367 R119L): T1 sequence (P52732 1-367 L214I) with R119L, I214L
From the text: as §1, §2, §3

[5] = system: AB9 cells; assay: Spindle phenotype of D. rerio cells treated with monastrol; assay type: cell-based; conditions: data not shown
From the text: Monastrol binds a hydrophobic pocket between loop 5 and α3 that is poorly conserved among kinesins, resulting in specificity for vertebrate Eg5 homologs. […] Monastrol is known to inhibit human and Xenopus Eg5 [7, 9], but not BimC [27]. To test its effect on D. rerio Eg5 and Klp-61F, we treated AB9 and KC167 cells with monastrol. […] To obtain unambiguous evidence, we cloned the motor domain of Klp-61F and subjected the recombinant protein to ATPase assays in the presence or absence of microtubules.
(§4) Conditions for growing the following cell lines are as described: D. rerio AB9 (37), D. melanogaster KC167 [38], and BS-C-1 green monkey kidney cells. For immunofluorescence microscopy, cells were grown on 12 mm circular coverslips to 30 % confluence, treated medium supplemented with drug and 0.2% DMSO, or a DMSO alone, for 6 hours, fixed with formaldehyde, and stained for DNA and microtubules, as described. D. melanogaster KC167 cells were cultured in Schneider's Drosophila Medium (GIBCO) whereas D. rerio AB9 cells and BS-C-1 green monkey kidney cells were cultured at 37°C in Dulbecco's Minimal medium in the presence of 10 % heat inactivated fetal calf serum.

[6] = system: BS-C-1 cells; assay: Monoaster formation in tissue culture cells (manual count of mitotic cells); assay type: cell-based, green monkey; conditions: Chlorocebus sabaeus, BSC-1, 6 h, read-out: Cells: monoaster formation score (drug concentration with roughly equal monastral and bipolar spindles)
Experimental: Figure 2 Structure-activity relationship of monastrol derivatives. (A) Scheme depicting the Biginelli condensation, a one-pot reaction for preparing monastrol derivatives. […] Each data point is the average of three independent experiments. […] Each cell-based assay was performed in duplicate.
as §4

CCOC(=O)C1=C(C)NC(=S)NC1c1cccc(O)c1 (stereo not drawn) [Monastrol]
Inhibition of human Eg5 [1]: inhibit | IC50 [2]: 63 ± 7 µM | Inhibition of BimC [3]: not | IC50 [4]: 17 ± 2 µM | Effect on mitosis in D. rerio cells [5]: mitotic arrest | EC50 [6]: < 50 µM
